Measurements: patent publication US20260198493A1, “HYDRAZIDE COMPOUND AND AGRICULTURAL/HORTICULTURAL FUNGICIDE” (Nippon Soda Co., Ltd., priority 2022, published 2026)

How the values were obtained:
Colletotrichum acutatum = test: Fungicidal effect test against fungi causing apple anthracnose; details: 96 h, read-out: growth inhibition ratio
Fusarium graminearum = test: microbe, parasite or virus in culture; format: cell-based; details: 96 h, read-out: growth inhibition ratio
Botrytis cinerea [1] = test: Control test of cucumber gray mold (sprayed young cucumber seedlings); format: in vivo; details: 96 h, four days after inoculation; for pest or weed control at 25 ppm: 25 ppm by mass spray; for pest or weed control at 125 ppm: 125 ppm by mass spray
Method: Then, the drug liquid was sprayed onto young cucumber seedlings cultivated in a nursery pot (variety “Jihai”-based, cotyledon stage), and then air-dried. […] They were left still in a moist room at 20° C. Four days after inoculation, leaves of the young cucumber seedlings were visually observed, and the control value was calculated from the lesion area ratio in accordance with the following equation. [formula]

Glomerella cingulata = test: Fungicidal effect test against fungi causing grape ripe rot disease; details: Colletotrichum gloeosporioides, 72 h, read-out: growth inhibition ratio
Venturia inaequalis = test: Control test of apple scab disease (sprayed young apple seedlings); format: in vivo; details: 125 ppm by mass spray, 12 to 14 days after inoculation
[2] = tested on: Erysiphe graminis f.sp.tritici; test: Control test of wheat powdery mildew disease (sprayed young wheat seedlings); format: in vivo; details: Blumeria graminis, 144 h, 125 ppm by mass spray, six days after inoculation
Botrytis cinerea [3] = format: cell-based; details: 120 h, 25 ppm by volume, Vogel medium, 20° C., five days, dark, read-out: growth inhibition ratio

COC(=O)N(Cc1ccc(C)cc1C)NC(=O)c1c(Oc2cccc(C3CC3)c2F)nnc2ccccc12 [b-90, Methyl 2-(3-(3-cyclopropyl-2-fluorophenoxy)cinnoline-4-carbonyl)-1-(2,4-dimethylbenzyl)hydrazine-1-carboxylate]
≥ 75%: inhibition of growth at 25 ppm (Colletotrichum acutatum) | inhibition of growth at 25 ppm (Fusarium graminearum) | pest or weed control at 25 ppm (Botrytis cinerea [1]) | pest or weed control at 125 ppm (Botrytis cinerea [1]) | inhibition of growth at 25 ppm (Glomerella cingulata) | pest or weed control at 125 ppm (Venturia inaequalis) | pest or weed control at 125 ppm [2] | inhibition of growth at 25 ppm (Botrytis cinerea [3])

COC(=O)N(Cc1ccc(C)cc1C)NC(=O)c1cc(OC)ncc1Oc1cccc(C2CC2)c1F [b-94]
≥ 75%: inhibition of growth at 25 ppm (Colletotrichum acutatum) | inhibition of growth at 25 ppm (Fusarium graminearum) | pest or weed control at 25 ppm (Botrytis cinerea [1]) | pest or weed control at 125 ppm (Botrytis cinerea [1]) | inhibition of growth at 25 ppm (Glomerella cingulata) | pest or weed control at 125 ppm (Venturia inaequalis) | pest or weed control at 125 ppm [2] | inhibition of growth at 25 ppm (Botrytis cinerea [3])

COC(=O)N(Cc1ccc(OC)cc1C)NC(=O)c1c(Oc2cccc(C3CC3)c2F)nnc(Cl)c1C [b-106]
≥ 75%: inhibition of growth at 25 ppm (Colletotrichum acutatum) | inhibition of growth at 25 ppm (Fusarium graminearum) | pest or weed control at 25 ppm (Botrytis cinerea [1]) | pest or weed control at 125 ppm (Botrytis cinerea [1]) | inhibition of growth at 25 ppm (Glomerella cingulata) | pest or weed control at 125 ppm (Venturia inaequalis) | pest or weed control at 125 ppm [2] | inhibition of growth at 25 ppm (Botrytis cinerea [3])

COC(=O)N(Cc1ccc(OC)cc1C)NC(=O)c1cc(C)ncc1Oc1cccc(Br)c1 [b-107]
≥ 75%: inhibition of growth at 25 ppm (Colletotrichum acutatum) | inhibition of growth at 25 ppm (Fusarium graminearum) | pest or weed control at 125 ppm (Botrytis cinerea [1]) | inhibition of growth at 25 ppm (Glomerella cingulata) | pest or weed control at 125 ppm (Venturia inaequalis) | pest or weed control at 125 ppm [2] | inhibition of growth at 25 ppm (Botrytis cinerea [3])

COC(=O)N(Cc1ccc(OC)cc1C)NC(=O)c1cc(C)ncc1Oc1cccc(Br)c1F [b-108]
≥ 75%: inhibition of growth at 25 ppm (Colletotrichum acutatum) | inhibition of growth at 25 ppm (Fusarium graminearum) | pest or weed control at 25 ppm (Botrytis cinerea [1]) | pest or weed control at 125 ppm (Botrytis cinerea [1]) | inhibition of growth at 25 ppm (Glomerella cingulata) | pest or weed control at 125 ppm (Venturia inaequalis) | pest or weed control at 125 ppm [2] | inhibition of growth at 25 ppm (Botrytis cinerea [3])

COC(=O)N(Cc1ccc(C)cc1C)NC(=O)c1cc(Br)ncc1Oc1cccc(Br)c1F [b-111]
≥ 75%: inhibition of growth at 25 ppm (Colletotrichum acutatum) | inhibition of growth at 25 ppm (Fusarium graminearum) | pest or weed control at 125 ppm (Botrytis cinerea [1]) | inhibition of growth at 25 ppm (Glomerella cingulata) | pest or weed control at 125 ppm (Venturia inaequalis) | pest or weed control at 125 ppm [2] | inhibition of growth at 25 ppm (Botrytis cinerea [3])

COC(=O)N(Cc1ccc(C)cc1C)NC(=O)c1cc(C)nnc1Oc1cccc(F)c1 [b-112]
≥ 75%: inhibition of growth at 25 ppm (Colletotrichum acutatum) | inhibition of growth at 25 ppm (Fusarium graminearum) | pest or weed control at 125 ppm (Botrytis cinerea [1]) | inhibition of growth at 25 ppm (Glomerella cingulata) | pest or weed control at 125 ppm (Venturia inaequalis) | pest or weed control at 125 ppm [2] | inhibition of growth at 25 ppm (Botrytis cinerea [3])

COC(=O)N(Cc1ccc(C)cc1C)NC(=O)c1cc(C)nnc1Oc1cccc(Cl)c1 [b-113]
≥ 75%: inhibition of growth at 25 ppm (Colletotrichum acutatum) | inhibition of growth at 25 ppm (Fusarium graminearum) | pest or weed control at 25 ppm (Botrytis cinerea [1]) | pest or weed control at 125 ppm (Botrytis cinerea [1]) | inhibition of growth at 25 ppm (Glomerella cingulata) | pest or weed control at 125 ppm (Venturia inaequalis) | pest or weed control at 125 ppm [2] | inhibition of growth at 25 ppm (Botrytis cinerea [3])

Cc1cccc(Oc2nnc(C)cc2C(=O)NN(Cc2ccc(C)cc2C)C(=O)O)c1 [b-117]
≥ 75%: inhibition of growth at 25 ppm (Colletotrichum acutatum) | inhibition of growth at 25 ppm (Fusarium graminearum) | pest or weed control at 25 ppm (Botrytis cinerea [1]) | pest or weed control at 125 ppm (Botrytis cinerea [1]) | inhibition of growth at 25 ppm (Glomerella cingulata) | pest or weed control at 125 ppm (Venturia inaequalis) | pest or weed control at 125 ppm [2] | inhibition of growth at 25 ppm (Botrytis cinerea [3])

COC(=O)N(Cc1ccc(C)cc1C)NC(=O)c1c(Br)cncc1Oc1cccc(C2CC2)c1 [b-118]
≥ 75%: inhibition of growth at 25 ppm (Colletotrichum acutatum) | inhibition of growth at 25 ppm (Fusarium graminearum) | pest or weed control at 25 ppm (Botrytis cinerea [1]) | pest or weed control at 125 ppm (Botrytis cinerea [1]) | inhibition of growth at 25 ppm (Glomerella cingulata) | pest or weed control at 125 ppm (Venturia inaequalis) | pest or weed control at 125 ppm [2] | inhibition of growth at 25 ppm (Botrytis cinerea [3])

COC(=O)N(Cc1ccc(C)cc1C)NC(=O)c1cc(C)nnc1Oc1csc(C(F)(F)F)c1 [b-124, Methyl 1-(2,4-dimethylbenzyl)-2-(6-methyl-3-((5-(trifluoromethyl)thiophen-3-yl)oxy)pyridazine-4-carbonyl)hydrazine-1-carboxylate]
≥ 75%: inhibition of growth at 25 ppm (Colletotrichum acutatum) | inhibition of growth at 25 ppm (Fusarium graminearum) | pest or weed control at 125 ppm (Botrytis cinerea [1]) | inhibition of growth at 25 ppm (Glomerella cingulata) | pest or weed control at 125 ppm (Venturia inaequalis) | pest or weed control at 125 ppm [2] | inhibition of growth at 25 ppm (Botrytis cinerea [3])

COC(=O)N(Cc1ccc2c(c1)CCC2)NC(=O)c1cc(C)ncc1Oc1cccc(C2CC2)c1F [b-127]
≥ 75%: inhibition of growth at 25 ppm (Colletotrichum acutatum) | inhibition of growth at 25 ppm (Fusarium graminearum) | pest or weed control at 25 ppm (Botrytis cinerea [1]) | pest or weed control at 125 ppm (Botrytis cinerea [1]) | inhibition of growth at 25 ppm (Glomerella cingulata) | pest or weed control at 125 ppm (Venturia inaequalis) | pest or weed control at 125 ppm [2] | inhibition of growth at 25 ppm (Botrytis cinerea [3])

COC(=O)N(Cc1ccc(C)cc1C)NC(=O)c1ccncc1Oc1cccc(Br)c1 [b-145]
≥ 75%: inhibition of growth at 25 ppm (Colletotrichum acutatum) | inhibition of growth at 25 ppm (Fusarium graminearum) | pest or weed control at 25 ppm (Botrytis cinerea [1]) | pest or weed control at 125 ppm (Botrytis cinerea [1]) | inhibition of growth at 25 ppm (Glomerella cingulata) | pest or weed control at 125 ppm (Venturia inaequalis) | pest or weed control at 125 ppm [2] | inhibition of growth at 25 ppm (Botrytis cinerea [3])

COC(=O)N(Cc1ccc(OC)cc1C)NC(=O)c1ccncc1Oc1cccc(Br)c1 [b-146]
≥ 75%: inhibition of growth at 25 ppm (Colletotrichum acutatum) | inhibition of growth at 25 ppm (Fusarium graminearum) | pest or weed control at 125 ppm (Botrytis cinerea [1]) | inhibition of growth at 25 ppm (Glomerella cingulata) | pest or weed control at 125 ppm (Venturia inaequalis) | pest or weed control at 125 ppm [2] | inhibition of growth at 25 ppm (Botrytis cinerea [3])

COC(=O)N(Cc1ccc(C)cc1C)NC(=O)c1ccncc1Oc1cccc(Br)c1F [b-147]
≥ 75%: inhibition of growth at 25 ppm (Colletotrichum acutatum) | inhibition of growth at 25 ppm (Fusarium graminearum) | pest or weed control at 25 ppm (Botrytis cinerea [1]) | pest or weed control at 125 ppm (Botrytis cinerea [1]) | inhibition of growth at 25 ppm (Glomerella cingulata) | pest or weed control at 125 ppm (Venturia inaequalis) | pest or weed control at 125 ppm [2] | inhibition of growth at 25 ppm (Botrytis cinerea [3])

COC(=O)N(Cc1ccc(OC)cc1C)NC(=O)c1ccncc1Oc1cccc(Br)c1F [b-148]
≥ 75%: inhibition of growth at 25 ppm (Colletotrichum acutatum) | inhibition of growth at 25 ppm (Fusarium graminearum) | pest or weed control at 25 ppm (Botrytis cinerea [1]) | pest or weed control at 125 ppm (Botrytis cinerea [1]) | inhibition of growth at 25 ppm (Glomerella cingulata) | pest or weed control at 125 ppm (Venturia inaequalis) | pest or weed control at 125 ppm [2] | inhibition of growth at 25 ppm (Botrytis cinerea [3])

COC(=O)N(Cc1ccc(C)cc1C)NC(=O)c1c(C)cncc1Oc1cccc(C2CC2)c1 [b-149]
≥ 75%: inhibition of growth at 25 ppm (Colletotrichum acutatum) | inhibition of growth at 25 ppm (Fusarium graminearum) | pest or weed control at 25 ppm (Botrytis cinerea [1]) | pest or weed control at 125 ppm (Botrytis cinerea [1]) | inhibition of growth at 25 ppm (Glomerella cingulata) | pest or weed control at 125 ppm (Venturia inaequalis) | pest or weed control at 125 ppm [2] | inhibition of growth at 25 ppm (Botrytis cinerea [3])

COC(=O)N(Cc1ccc(C)cc1C)NC(=O)c1ccncc1Oc1cccc(C2CC2)c1F [b-150]
≥ 75%: inhibition of growth at 25 ppm (Colletotrichum acutatum) | inhibition of growth at 25 ppm (Fusarium graminearum) | pest or weed control at 25 ppm (Botrytis cinerea [1]) | pest or weed control at 125 ppm (Botrytis cinerea [1]) | inhibition of growth at 25 ppm (Glomerella cingulata) | pest or weed control at 125 ppm (Venturia inaequalis) | pest or weed control at 125 ppm [2] | inhibition of growth at 25 ppm (Botrytis cinerea [3])

COC(=O)N(Cc1ccc(C)cc1C)NC(=O)c1cc(C)nnc1Oc1cccc(F)c1F [b-152]
≥ 75%: inhibition of growth at 25 ppm (Colletotrichum acutatum) | inhibition of growth at 25 ppm (Fusarium graminearum) | pest or weed control at 25 ppm (Botrytis cinerea [1]) | pest or weed control at 125 ppm (Botrytis cinerea [1]) | inhibition of growth at 25 ppm (Glomerella cingulata) | pest or weed control at 125 ppm (Venturia inaequalis) | pest or weed control at 125 ppm [2] | inhibition of growth at 25 ppm (Botrytis cinerea [3])

COC(=O)N(Cc1ccc(C)cc1OC)NC(=O)c1cc(C)nnc1Oc1cccc(C2CC2)c1F [b-153]
≥ 75%: inhibition of growth at 25 ppm (Colletotrichum acutatum) | inhibition of growth at 25 ppm (Fusarium graminearum) | pest or weed control at 25 ppm (Botrytis cinerea [1]) | pest or weed control at 125 ppm (Botrytis cinerea [1]) | inhibition of growth at 25 ppm (Glomerella cingulata) | pest or weed control at 125 ppm (Venturia inaequalis) | pest or weed control at 125 ppm [2] | inhibition of growth at 25 ppm (Botrytis cinerea [3])

CCc1cc(C(=O)NN(Cc2ccc(OC)cc2C)C(=O)OC)c(Oc2cccc(C3CC3)c2F)nn1 [b-154]
≥ 75%: inhibition of growth at 25 ppm (Colletotrichum acutatum) | inhibition of growth at 25 ppm (Fusarium graminearum) | pest or weed control at 25 ppm (Botrytis cinerea [1]) | pest or weed control at 125 ppm (Botrytis cinerea [1]) | inhibition of growth at 25 ppm (Glomerella cingulata) | pest or weed control at 125 ppm (Venturia inaequalis) | pest or weed control at 125 ppm [2] | inhibition of growth at 25 ppm (Botrytis cinerea [3])

COC(=O)N(Cc1ccc(OC)cc1C)NC(=O)c1cc(C)nnc1Oc1cccc(Cl)c1F [b-168]
≥ 75%: inhibition of growth at 25 ppm (Colletotrichum acutatum) | inhibition of growth at 25 ppm (Fusarium graminearum) | pest or weed control at 125 ppm (Botrytis cinerea [1]) | inhibition of growth at 25 ppm (Glomerella cingulata) | pest or weed control at 125 ppm (Venturia inaequalis) | pest or weed control at 125 ppm [2] | inhibition of growth at 25 ppm (Botrytis cinerea [3])

COC(=O)N(Cc1ccc(C)cc1C)NC(=O)c1cc(Cl)nnc1Oc1cccc(Cl)c1F [b-169]
≥ 75%: inhibition of growth at 25 ppm (Colletotrichum acutatum) | inhibition of growth at 25 ppm (Fusarium graminearum) | pest or weed control at 125 ppm (Botrytis cinerea [1]) | inhibition of growth at 25 ppm (Glomerella cingulata) | pest or weed control at 125 ppm (Venturia inaequalis) | pest or weed control at 125 ppm [2] | inhibition of growth at 25 ppm (Botrytis cinerea [3])

COC(=O)N(Cc1ccc(OC)cc1C)NC(=O)c1cc(Cl)nnc1Oc1cccc(Cl)c1F [b-170]
≥ 75%: inhibition of growth at 25 ppm (Colletotrichum acutatum) | inhibition of growth at 25 ppm (Fusarium graminearum) | pest or weed control at 125 ppm (Botrytis cinerea [1]) | inhibition of growth at 25 ppm (Glomerella cingulata) | pest or weed control at 125 ppm (Venturia inaequalis) | pest or weed control at 125 ppm [2] | inhibition of growth at 25 ppm (Botrytis cinerea [3])
